Assay [1] concerns the target T1, 5-hydroxytryptamine receptor 1A (Homo sapiens, UniProt P08908).
T1 sequence (P08908 whole entry): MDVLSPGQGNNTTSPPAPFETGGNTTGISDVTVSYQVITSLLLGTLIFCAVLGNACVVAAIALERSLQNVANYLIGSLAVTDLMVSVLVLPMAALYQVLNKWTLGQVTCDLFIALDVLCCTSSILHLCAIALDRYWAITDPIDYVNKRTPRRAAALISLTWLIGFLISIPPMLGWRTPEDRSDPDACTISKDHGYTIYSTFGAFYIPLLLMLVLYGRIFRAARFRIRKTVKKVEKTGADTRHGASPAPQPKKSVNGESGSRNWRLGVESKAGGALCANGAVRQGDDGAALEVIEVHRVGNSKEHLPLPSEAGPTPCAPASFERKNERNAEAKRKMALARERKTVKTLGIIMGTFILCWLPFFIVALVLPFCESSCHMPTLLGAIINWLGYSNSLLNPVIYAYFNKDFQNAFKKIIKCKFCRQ

The target in assay [2] is D(3) dopamine receptor (Homo sapiens, UniProt P35462).
Assay [3] addresses 3',5'-cyclic-AMP phosphodiesterase 4A (Homo sapiens, UniProt P27815). It is filed as functional.
Assay [4] addresses Sodium-dependent noradrenaline transporter (Homo sapiens, UniProt P23975).
Assay [5] addresses 5-hydroxytryptamine receptor 2B (Homo sapiens, UniProt P41595). It is filed as functional, cell-based.
Assay [6] concerns the target T2, Thromboxane A2 receptor (Homo sapiens, UniProt P21731).
T2 sequence (P21731 whole entry): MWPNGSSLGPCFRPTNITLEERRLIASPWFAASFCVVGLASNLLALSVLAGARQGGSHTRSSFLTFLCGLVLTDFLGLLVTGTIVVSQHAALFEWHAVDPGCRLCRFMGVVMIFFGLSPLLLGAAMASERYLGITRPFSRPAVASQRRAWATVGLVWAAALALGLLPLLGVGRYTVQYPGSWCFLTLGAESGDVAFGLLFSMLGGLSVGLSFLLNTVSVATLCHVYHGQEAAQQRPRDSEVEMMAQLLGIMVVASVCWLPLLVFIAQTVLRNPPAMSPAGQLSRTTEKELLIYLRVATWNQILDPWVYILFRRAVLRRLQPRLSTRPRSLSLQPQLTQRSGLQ
It counts as functional, cell-based.

The target of assay [7] is T2, Thromboxane A2 receptor. It counts as functional, cell-based. This is another data set of the same source.
For assay [8], the target named is D(1A) dopamine receptor (Homo sapiens, UniProt P21728).
The target of assay [9] is Sodium-dependent dopamine transporter (Homo sapiens, UniProt Q01959).
Assay [10] concerns the target Prothrombin (Homo sapiens, UniProt P00734). It is filed as functional.
Assay [11] has as its target T3, Alpha-2A adrenergic receptor (Homo sapiens, UniProt P08913).
T3 sequence (P08913 whole entry): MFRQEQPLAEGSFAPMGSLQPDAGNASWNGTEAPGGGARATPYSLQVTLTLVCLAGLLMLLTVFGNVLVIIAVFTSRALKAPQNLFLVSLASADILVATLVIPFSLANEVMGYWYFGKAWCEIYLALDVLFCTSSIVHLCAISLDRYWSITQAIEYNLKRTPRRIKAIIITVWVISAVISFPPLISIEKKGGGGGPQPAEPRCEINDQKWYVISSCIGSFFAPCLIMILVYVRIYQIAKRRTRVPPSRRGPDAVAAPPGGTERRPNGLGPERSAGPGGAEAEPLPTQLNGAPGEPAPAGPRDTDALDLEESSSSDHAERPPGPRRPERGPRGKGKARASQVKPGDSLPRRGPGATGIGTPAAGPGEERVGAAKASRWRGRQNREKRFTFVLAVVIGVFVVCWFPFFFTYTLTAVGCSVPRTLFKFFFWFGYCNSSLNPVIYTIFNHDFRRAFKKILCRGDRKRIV

Assay [12] concerns the target Histamine H3 receptor (Homo sapiens, UniProt Q9Y5N1).
Assay [13] deals with Acetylcholinesterase (Homo sapiens, UniProt P22303). It counts as functional.
Assay [14] concerns the target Mu-type opioid receptor (Homo sapiens, UniProt P35372).
For assay [15], the target named is cGMP-inhibited 3',5'-cyclic phosphodiesterase 3A (Homo sapiens, UniProt Q14432). It counts as functional.
Assay [16] concerns the target Voltage-gated inwardly rectifying potassium channel KCNH2 (Homo sapiens, UniProt Q12809). It counts as functional.
The target in assay [17] is Prostaglandin G/H synthase 1 (Homo sapiens, UniProt P23219). It counts as functional.

We go through ten compounds from ChEMBL document CHEMBL5291721, “A preclinical secondary pharmacology resource illuminates target-adverse drug reaction associations of marketed drugs” (Nat Commun, 2023).

Some results are limits rather than exact numbers.
Note: assay procedure not described here.

D(3) dopamine receptor, sequence (P35462 whole entry): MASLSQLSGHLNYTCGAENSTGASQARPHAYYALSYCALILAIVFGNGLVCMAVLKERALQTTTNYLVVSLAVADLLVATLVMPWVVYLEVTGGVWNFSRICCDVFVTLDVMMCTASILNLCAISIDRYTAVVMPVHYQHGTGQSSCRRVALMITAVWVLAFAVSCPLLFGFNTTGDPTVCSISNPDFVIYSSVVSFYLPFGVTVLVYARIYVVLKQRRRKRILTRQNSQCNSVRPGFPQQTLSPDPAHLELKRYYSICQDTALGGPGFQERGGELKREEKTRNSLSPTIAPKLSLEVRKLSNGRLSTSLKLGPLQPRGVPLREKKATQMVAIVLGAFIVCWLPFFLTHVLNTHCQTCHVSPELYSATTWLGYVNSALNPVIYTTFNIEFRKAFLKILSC
Mu-type opioid receptor, sequence (P35372 whole entry): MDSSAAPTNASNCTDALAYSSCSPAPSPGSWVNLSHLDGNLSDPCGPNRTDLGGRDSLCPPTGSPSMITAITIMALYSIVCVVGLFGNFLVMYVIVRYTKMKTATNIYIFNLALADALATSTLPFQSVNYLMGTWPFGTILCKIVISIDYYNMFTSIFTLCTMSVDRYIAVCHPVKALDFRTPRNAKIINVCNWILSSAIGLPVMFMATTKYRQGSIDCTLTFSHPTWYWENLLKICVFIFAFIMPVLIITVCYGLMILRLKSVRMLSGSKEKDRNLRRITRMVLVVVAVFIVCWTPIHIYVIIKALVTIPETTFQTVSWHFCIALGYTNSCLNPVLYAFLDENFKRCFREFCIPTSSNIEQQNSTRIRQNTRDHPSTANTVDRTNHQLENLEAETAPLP
5-hydroxytryptamine receptor 2B, sequence (P41595 whole entry): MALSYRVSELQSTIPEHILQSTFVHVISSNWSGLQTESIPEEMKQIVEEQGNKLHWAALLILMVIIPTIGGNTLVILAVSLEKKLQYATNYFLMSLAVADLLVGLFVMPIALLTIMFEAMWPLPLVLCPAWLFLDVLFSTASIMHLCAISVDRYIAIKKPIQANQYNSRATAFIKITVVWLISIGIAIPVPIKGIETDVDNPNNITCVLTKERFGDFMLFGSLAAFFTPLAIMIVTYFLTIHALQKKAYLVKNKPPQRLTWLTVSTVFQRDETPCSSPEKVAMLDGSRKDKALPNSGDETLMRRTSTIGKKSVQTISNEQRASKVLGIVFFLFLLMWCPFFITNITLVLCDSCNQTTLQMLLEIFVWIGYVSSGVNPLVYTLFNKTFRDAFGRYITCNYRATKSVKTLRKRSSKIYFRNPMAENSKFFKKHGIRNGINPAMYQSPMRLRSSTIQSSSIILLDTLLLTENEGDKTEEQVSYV
3',5'-cyclic-AMP phosphodiesterase 4A, sequence (P27815 whole entry): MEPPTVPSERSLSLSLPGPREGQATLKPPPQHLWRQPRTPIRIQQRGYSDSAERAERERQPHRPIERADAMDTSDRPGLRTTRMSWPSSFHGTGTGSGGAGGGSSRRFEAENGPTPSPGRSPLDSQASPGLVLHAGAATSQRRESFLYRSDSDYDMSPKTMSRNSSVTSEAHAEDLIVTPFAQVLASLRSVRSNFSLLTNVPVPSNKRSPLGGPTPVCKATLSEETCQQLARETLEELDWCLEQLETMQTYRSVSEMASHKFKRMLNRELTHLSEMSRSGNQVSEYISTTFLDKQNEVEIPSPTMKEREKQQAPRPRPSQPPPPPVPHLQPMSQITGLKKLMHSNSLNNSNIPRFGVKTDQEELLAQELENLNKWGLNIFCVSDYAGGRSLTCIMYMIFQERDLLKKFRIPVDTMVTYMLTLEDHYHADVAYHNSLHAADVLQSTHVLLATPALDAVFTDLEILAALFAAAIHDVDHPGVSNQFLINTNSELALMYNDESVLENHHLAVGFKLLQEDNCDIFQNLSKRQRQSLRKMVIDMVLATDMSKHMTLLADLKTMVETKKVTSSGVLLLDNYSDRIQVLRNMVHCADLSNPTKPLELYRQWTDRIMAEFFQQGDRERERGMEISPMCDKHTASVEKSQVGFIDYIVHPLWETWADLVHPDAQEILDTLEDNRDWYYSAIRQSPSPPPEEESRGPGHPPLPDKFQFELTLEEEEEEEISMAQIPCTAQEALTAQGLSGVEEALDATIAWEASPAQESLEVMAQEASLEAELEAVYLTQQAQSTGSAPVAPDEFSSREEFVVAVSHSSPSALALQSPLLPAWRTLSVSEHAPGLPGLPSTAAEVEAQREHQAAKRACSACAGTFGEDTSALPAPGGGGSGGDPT
Prostaglandin G/H synthase 1, sequence (P23219 whole entry): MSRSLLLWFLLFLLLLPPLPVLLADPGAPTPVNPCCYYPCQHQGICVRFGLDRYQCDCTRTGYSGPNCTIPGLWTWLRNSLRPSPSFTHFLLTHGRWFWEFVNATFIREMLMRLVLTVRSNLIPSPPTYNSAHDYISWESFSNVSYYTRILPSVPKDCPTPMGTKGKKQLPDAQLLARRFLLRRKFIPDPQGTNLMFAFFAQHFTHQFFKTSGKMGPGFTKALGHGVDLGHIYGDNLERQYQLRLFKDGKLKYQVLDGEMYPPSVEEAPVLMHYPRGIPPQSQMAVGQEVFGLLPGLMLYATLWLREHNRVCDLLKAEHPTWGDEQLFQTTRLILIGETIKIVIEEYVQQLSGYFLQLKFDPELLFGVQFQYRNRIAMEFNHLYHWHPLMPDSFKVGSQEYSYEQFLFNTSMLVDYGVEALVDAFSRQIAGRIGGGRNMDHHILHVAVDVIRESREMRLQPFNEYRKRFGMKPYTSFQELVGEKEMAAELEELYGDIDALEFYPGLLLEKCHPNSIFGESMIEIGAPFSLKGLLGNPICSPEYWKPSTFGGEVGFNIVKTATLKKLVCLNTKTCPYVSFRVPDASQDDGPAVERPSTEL
Voltage-gated inwardly rectifying potassium channel KCNH2, sequence (Q12809 whole entry): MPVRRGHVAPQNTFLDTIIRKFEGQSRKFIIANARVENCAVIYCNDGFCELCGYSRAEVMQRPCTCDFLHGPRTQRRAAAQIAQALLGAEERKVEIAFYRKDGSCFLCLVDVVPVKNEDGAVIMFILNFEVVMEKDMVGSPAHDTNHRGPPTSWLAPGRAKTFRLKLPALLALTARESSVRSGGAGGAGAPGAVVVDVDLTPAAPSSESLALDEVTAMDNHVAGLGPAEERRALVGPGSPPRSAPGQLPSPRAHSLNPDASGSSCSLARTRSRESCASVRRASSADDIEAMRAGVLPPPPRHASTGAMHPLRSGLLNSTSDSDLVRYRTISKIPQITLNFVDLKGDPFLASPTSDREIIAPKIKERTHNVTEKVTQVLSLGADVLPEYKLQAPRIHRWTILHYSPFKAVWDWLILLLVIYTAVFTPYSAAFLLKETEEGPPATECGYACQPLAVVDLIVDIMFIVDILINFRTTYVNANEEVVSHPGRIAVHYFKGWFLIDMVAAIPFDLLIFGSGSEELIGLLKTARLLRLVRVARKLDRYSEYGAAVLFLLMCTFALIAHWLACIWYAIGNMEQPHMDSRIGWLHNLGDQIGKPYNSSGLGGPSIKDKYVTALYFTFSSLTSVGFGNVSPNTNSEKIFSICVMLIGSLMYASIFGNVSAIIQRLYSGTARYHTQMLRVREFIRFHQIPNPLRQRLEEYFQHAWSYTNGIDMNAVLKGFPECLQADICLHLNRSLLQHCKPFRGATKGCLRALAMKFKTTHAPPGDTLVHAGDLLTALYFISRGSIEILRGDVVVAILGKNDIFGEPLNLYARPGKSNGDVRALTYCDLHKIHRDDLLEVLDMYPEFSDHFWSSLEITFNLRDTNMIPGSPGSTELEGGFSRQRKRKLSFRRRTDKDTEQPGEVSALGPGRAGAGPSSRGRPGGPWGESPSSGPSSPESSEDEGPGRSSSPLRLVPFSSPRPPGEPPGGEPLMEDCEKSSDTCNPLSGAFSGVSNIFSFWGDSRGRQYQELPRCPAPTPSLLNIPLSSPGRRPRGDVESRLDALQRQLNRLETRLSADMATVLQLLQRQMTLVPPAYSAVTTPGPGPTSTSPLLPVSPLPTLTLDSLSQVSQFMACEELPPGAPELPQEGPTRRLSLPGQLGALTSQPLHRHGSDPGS
Sodium-dependent noradrenaline transporter, sequence (P23975 whole entry): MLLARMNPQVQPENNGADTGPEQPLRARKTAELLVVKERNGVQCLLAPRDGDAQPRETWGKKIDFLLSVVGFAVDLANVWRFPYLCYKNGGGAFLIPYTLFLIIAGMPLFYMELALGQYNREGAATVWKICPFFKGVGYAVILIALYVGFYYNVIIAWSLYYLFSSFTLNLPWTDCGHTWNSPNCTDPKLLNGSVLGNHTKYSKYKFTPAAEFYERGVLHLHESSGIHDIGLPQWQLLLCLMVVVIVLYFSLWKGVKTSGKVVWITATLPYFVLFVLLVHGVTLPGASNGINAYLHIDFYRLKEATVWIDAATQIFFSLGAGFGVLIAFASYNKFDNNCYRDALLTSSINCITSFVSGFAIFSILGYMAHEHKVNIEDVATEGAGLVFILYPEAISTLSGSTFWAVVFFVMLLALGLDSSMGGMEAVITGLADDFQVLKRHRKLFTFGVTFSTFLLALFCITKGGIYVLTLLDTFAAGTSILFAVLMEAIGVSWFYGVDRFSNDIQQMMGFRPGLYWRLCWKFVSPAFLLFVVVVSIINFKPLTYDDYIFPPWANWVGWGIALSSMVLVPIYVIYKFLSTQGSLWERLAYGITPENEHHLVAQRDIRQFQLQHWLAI
D(1A) dopamine receptor, sequence (P21728 whole entry): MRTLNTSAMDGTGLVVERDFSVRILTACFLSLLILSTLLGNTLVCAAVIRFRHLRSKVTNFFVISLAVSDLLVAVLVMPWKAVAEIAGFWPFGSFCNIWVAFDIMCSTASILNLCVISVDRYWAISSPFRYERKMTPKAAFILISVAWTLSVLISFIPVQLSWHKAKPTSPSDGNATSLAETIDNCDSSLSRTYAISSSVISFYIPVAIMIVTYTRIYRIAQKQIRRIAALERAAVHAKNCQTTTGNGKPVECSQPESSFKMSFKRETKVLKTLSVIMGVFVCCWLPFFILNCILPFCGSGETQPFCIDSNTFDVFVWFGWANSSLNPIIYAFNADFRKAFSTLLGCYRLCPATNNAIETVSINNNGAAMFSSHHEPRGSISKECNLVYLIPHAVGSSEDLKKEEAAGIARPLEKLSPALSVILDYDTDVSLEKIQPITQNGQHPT

On to `CC[C@H](C)C[C@H](C)CCCCCCCCC(=O)N[C@H]1C[C@@H](O)[C@@H](NCCN)NC(=O)[C@@H]2[C@@H](O)CCN2C(=O)[C@H]([C@H](O)CCN)NC(=O)[C@H]([C@H](O)[C@@H](O)c2ccc(O)cc2)NC(=O)[C@@H]2C[C@@H](O)CN2C(=O)[C@H]([C@@H](C)O)NC1=O` [CASPOFUNGIN], for which the concentration at half-maximal activity (AC50) in assay [1] is more than 30 µM; in assay [2] it was more than 30 µM; in assay [3], more than 30 µM; in assay [4] it was 5.03 µM; in [5], more than 30 µM; in [6], more than 30 µM. Also, the concentration at half-maximal activity (AC50) in assay [7] was more than 30 µM; in assay [8], 8.83 µM; in assay [9] it was 4.13 µM; in assay [10], more than 30 µM; in [11] it was more than 30 µM; in assay [12] it was more than 30 µM. Further, the values for the AC50 in [13], in [14] and in assay [15] were more than 30 µM, 5.12 µM and more than 30 µM, respectively.
As to `CN(C)[C@@H]1C(O)=C(C(N)=O)C(=O)[C@@]2(O)C(O)=C3C(=O)c4c(O)ccc(Cl)c4[C@@](C)(O)[C@H]3C[C@@H]12` [CHLORTETRACYCLINE], the half-maximal activity concentration (AC50) in assay [1], in assay [2], in assay [16], in assay [17], in assay [4] and in assay [5] was more than 30 µM throughout. Also, the AC50 in [6], in [7], in assay [8], in [9], in [10] and in assay [11] was more than 30 µM in each case. The AC50 in assay [12], in assay [13], in assay [14] and in assay [15] was more than 30 µM each time.
As for `N[C@@H](CS)C(=O)O` [CYSTEINE], the AC50 in [1] was more than 30 µM; in assay [2] it was more than 30 µM; in assay [17], 4.66 µM; in [3] it was more than 30 µM; in assay [4] it was more than 30 µM; in [5], more than 30 µM. Besides, the concentration at half-maximal activity (AC50) in [6], in [7], in [8], in [9], in assay [10] and in assay [11] was more than 30 µM in each case. For the same compound, the concentration at half-maximal activity (AC50) in [12], in assay [13], in assay [14] and in assay [15] was more than 30 µM each time.
As to `CCc1nc(C(N)=O)c(Nc2ccc(N3CCC(N4CCN(C)CC4)CC3)c(OC)c2)nc1NC1CCOCC1` [GILTERITINIB], the AC50 in [1] is more than 30 µM; in assay [2] it was 26.7 µM; in assay [17] it was more than 30 µM; in assay [3], 2.44 µM; in assay [4] it was more than 30 µM; in assay [5], more than 30 µM. Also, the AC50 in [6] was more than 30 µM; in assay [7], more than 0.3 µM; in assay [8], more than 30 µM; in [9] it was more than 30 µM; in [10], more than 30 µM; in assay [11] it was more than 30 µM. In addition, the concentration at half-maximal activity (AC50) in assay [12] is 13.7 µM; in assay [13] it was more than 30 µM; in assay [14] it was more than 30 µM; in [15] it was more than 30 µM.
On to `O=C(O)CO` [GLYCOLIC ACID], for which the AC50 in assay [1], in assay [2], in assay [17], in [3], in [4] and in assay [5] was more than 30 µM throughout. Moreover, the AC50 in assay [6], in assay [7], in [8], in assay [9], in assay [10] and in assay [11] was more than 30 µM throughout. For the same compound, the concentration at half-maximal activity (AC50) in assay [12], in assay [13], in [14] and in [15] was more than 30 µM each time.
For the compound `OC[C@H]1O[C@@H](c2ccc(F)c(Cc3cc4ccccc4s3)c2)[C@H](O)[C@@H](O)[C@@H]1O` [IPRAGLIFLOZIN], the concentration at half-maximal activity (AC50) in [1], in assay [2], in [17], in assay [3], in assay [4] and in assay [5] was more than 30 µM throughout. The AC50 was more than 30 µM in assay [6]; more than 30 µM in [7]; more than 30 µM in [8]; 7.69 µM in [9]; more than 30 µM in assay [10]; more than 30 µM in assay [11]. Besides, the AC50 in assay [12], in assay [13], in [14] and in assay [15] was more than 30 µM in each case.
Take `CC(CCc1ccccc1)NCC(O)c1ccc(O)c(C(N)=O)c1` (stereo not given) [LABETALOL]: the concentration at half-maximal activity (AC50) was 0.104 µM in [1]; 5.85 µM in [2]; more than 30 µM in assay [16]; more than 30 µM in assay [17]; more than 30 µM in assay [3]; 4.04 µM in [4]. Moreover, the half-maximal activity concentration (AC50) was more than 30 µM in assay [5]; more than 30 µM in assay [6]; more than 30 µM in [7]; more than 30 µM in assay [8]; 2.22 µM in assay [9]; more than 30 µM in assay [10]. The AC50 in assay [12] was more than 30 µM; in assay [13], more than 30 µM; in assay [14] it was 2.42 µM; in [15], more than 30 µM.
For the compound `CN1CCCCC1CCN1c2ccccc2Sc2ccc([S+](C)[O-])cc21` (stereo not given) [MESORIDAZINE], the AC50 was 0.214 µM in assay [1]; 0.0197 µM in assay [2]; more than 30 µM in assay [17]; more than 30 µM in assay [3]; 28.8 µM in [4]; more than 30 µM in assay [5]. Besides, the concentration at half-maximal activity (AC50) in assay [6] was more than 30 µM; in assay [7], more than 30 µM; in assay [8], 0.0712 µM; in assay [9], 19.8 µM; in [10], more than 30 µM; in assay [11] it was 2.59 µM. Also, the AC50 in assay [12] is 21.9 µM; in [13], more than 30 µM; in [14] it was 2.99 µM; in [15], more than 30 µM.
On to `N#Cc1ccc2c(c1)N(CCCN1CCC(O)CC1)c1ccccc1S2` [PERICIAZINE], for which the AC50 in assay [1] was 8.8 µM; in assay [16] it was 5.82 µM; in [17] it was 21.5 µM; in assay [3], more than 30 µM; in assay [4], 5.08 µM; in [5], more than 30 µM. The AC50 in assay [6] was more than 30 µM; in assay [7], 17 µM; in assay [10] it was more than 30 µM; in [12], more than 30 µM; in [13], 29.1 µM; in [14], 4.59 µM. The concentration at half-maximal activity (AC50) in [15] was more than 30 µM.
With `CC1=C(/C=C/C(C)=C/C=C/C(C)=C/C(=O)O)C(C)(C)CCC1` [TRETINOIN], the AC50 in assay [1] was more than 30 µM; in assay [2], 22.6 µM; in assay [3], 1.27 µM; in [4], 10.5 µM; in assay [5] it was more than 30 µM; in [6] it was more than 30 µM. The AC50 was 14.3 µM in [7]; more than 30 µM in assay [8]; more than 30 µM in assay [9]; more than 30 µM in assay [10]; more than 30 µM in assay [11]; more than 30 µM in assay [12]. Moreover, the concentration at half-maximal activity (AC50) in assay [13], in assay [14] and in [15] was more than 30 µM in each case.

Broadly, the AC50 is the midpoint of the concentration-response curve, whichever way the signal moves.
